{
  "source": "patent US7723301B2",
  "about": "“Pharmaceutical compositions comprising an anti-teratogenic compound and applications of the same” (The Board of Trustees of the University of Arkansas, priority 2007, dated 2010)",
  "key": {"[1]": {"system": "Bmp4 and Dkk1 expression in HEFs", "test": "sqRT-PCR of Bmp4 and Dkk1 expression in HEFs", "type": "cell-based, human", "details": "10 μg/ml, six hours", "method": "(§1) Primary limb bud cells (PLBCs) were isolated from 60 pooled wing and hindlimb buds of HH stages 23/24 embryos. Fibroblasts were gained from HH stage 34 chicken embryos or from 13.5 d.p.c. mouse embryos. Human embryonic fibroblasts were provided by Matthias Maass (2). Before adding reagents, all cell types were cultured for 16 hours in D-MEM (Gibco) plus 10% fetal calf serum (FCS) and 2% chicken serum. Treatment with thalidomide, phthalimide, recombinant human (rh) BMP4 (300 ng/ml; R&D Systems), juglone (5 μM; Sigma), recombinant mouse Noggin (30, 300, 1000 ng/ml in FIG. 4B; 300 ng/ml in FIGS. 4C and 6A), anti-human-DKK1 antibody (35, 350 and 1000 ng/ml in FIG. 4B; 350 ng/ml in FIGS. 4C and 6A), LiCl (3, 30, 60 mM in FIG. 4B; 30 mM in FIGS. 4C, 6A and 6C) and/or (2Z,3E)-6-Bromoindirubin-3-oxime (BIO, Gsk3-Inhibitor IX; 50, 500, 1000 nM in FIG. 4B; 500 nM in FIG. 6A; 50 and 500 nM in FIG. 6C; Calbiochem) were performed in Optimem1 (Invitrogen) plus 1% FCS. Unless otherwise noted, all treatments with thalidomide and rh-BMP4 and associated controls were done for six hours. Inhibitors were applied once at the beginning of incubation with the exception of LiCl that was added 150 minutes before harvesting the cells for further analyses. Pre-treatment with phenyl-N-t-butylnitrone (PBN; 2 mM; Sigma) was performed for one hour. Incubations with juglone were performed for two hours, if applicable, after a pre-treatment with PBN, Noggin, anti-Dkk1 antibody, LiCl or Gsk3-Inhibitor IX for one hour.\n(§2) RNA isolation, semi-quantitative RT-PCRs and whole mount in situ hybridizations were performed according to standard protocols that are well known within the art. RNA was isolated using TRIZOL (Gibco BRL) followed by DNAseI digestion. First strand synthesis was carried out with the Expand RT System (Roche) according to the manufacturer's instructions. PCR amplification was carried out primers and conditions within the knowledge of a person having skill in the relevant art. Quantifications were performed using NIH Image 1.62."}, "[2]": {"system": "Dkk1 and Bmp expression in limb buds", "test": "sqRT-PCR and whole mount in situ hybridization of Dkk1 and Bmp expression in limb buds", "type": "in vivo, chicken", "method": "as §2"}, "[3]": {"system": "Wnt/β-catenin signaling", "test": "TOPflash luciferase reporter assay in CEFs", "type": "cell-based, chicken", "details": "Wnt3a-conditioned medium, 24 hours", "method": "Plasmids with wild type (TOPflash) or mutated (FOPflash) LEF/TCF binding sites (5) upstream of a luciferase reporter gene were transiently transfected into CEFs using Lipofectamine (Invitrogen). Following transfection for 24 hours, the cells were exposed to Wnt3a-conditioned medium or to control medium (6) with or without thalidomide or recombinant human DKK1 (150 ng/ml, R&D Biosystems) for 24 hours prior to luciferase assay. Values were normalized for transfection efficiency by co-transfection with a pSV-β-galactosidase vector and for the number of living cells. Luciferase activity was measured using the Dual-Light System (Applied Biosystems)."}, "[4]": {"system": "primary limb bud cells (PLBCs)", "test": "Cell death by trypan blue staining in PLBCs", "type": "cell-based, chicken", "method": "as §1\n(§3) Cell death in PLBCs, CEFs, MEFs and HEFs was detected by staining with trypan blue (0.1% (w/v) in PBS; Sigma) for 90 seconds. Cells were counted in a counting chamber to determine the ratio of dead to live cells."}, "[5]": {"system": "primary chicken embryonic fibroblasts (CEFs)", "test": "Cell death by trypan blue staining in CEFs", "type": "cell-based", "details": "38.7 μM (10 μg/ml), six hours", "method": "as §1, §3"}, "[6]": {"system": "β-catenin", "test": "Sub-cellular localization of β-catenin in HEFs", "type": "cell-based, human", "details": "in the presence of Wnt3a; about 70% with Wnt3a alone", "method": "CEFs or HEFs attached on cover slips were incubated with Wnt3a-conditioned medium including thalidomide or solvent or with control medium for five hours. β-catenin was detected by using a mouse anti-β-catenin antibody (1:500, BD Transduction Laboratories), an anti-mouse Cy3-coupled secondary antibody (Dianova) and fluorescence microscopy. Afterwards, a DAPI staining was performed as a control. Quantification was done by counting the nuclei with a clear fluorescent signal in relation to the number of DAPI-stained nuclei."}},
  "data": [
    {"smiles": "O=C1CCC(N2C(=O)c3ccccc3C2=O)C(=O)N1", "note": "(racemic) [thalidomide, 2-(2,6-dioxo-3-piperidyl)isoindole-1,3-dione]", "values": [
      {"measurement": "expression of Bmp4 and Dkk1 in HEFs", "setting": "[1]", "result": "induced the expression"},
      {"measurement": "expression level of Bmp2 in limb buds (sqRT-PCR)", "setting": "[2]; HH stages 23/24 embryos", "result": "not significantly affected"},
      {"measurement": "expression of Bmp4, Bmp5 and Bmp7 in limb buds (sqRT-PCR)", "setting": "[2]; HH stages 23/24 embryos", "result": "clearly up-regulated"},
      {"measurement": "Dkk1 expression in limb buds (sqRT-PCR)", "setting": "[2]; HH stages 23/24 embryos, in comparison to controls", "result": "dramatically enhanced"},
      {"measurement": "limb buds with Bmp4 expression dramatically up-regulated (whole mount in situ hybridization)", "setting": "[2]; HH stages 23/24 embryos, AER, ANZ and PNZ", "result": "20 of 36"},
      {"measurement": "limb buds with Dkk1 expression clearly enhanced (whole mount in situ hybridization)", "setting": "[2]; HH stages 23/24 embryos, AER, underlying mesenchyme and ANZ", "result": "19 of 64"},
      {"measurement": "limb buds with enhanced Bmp expression and PCD", "setting": "[2]; in vivo", "result": 55, "unit": "%"},
      {"measurement": "limb buds with increased Dkk1 expression", "setting": "[2]; in vivo", "result": 30, "unit": "%"},
      {"measurement": "effect on Wnt3a-induced TOPflash activity", "setting": "[3]", "result": "clearly counteracted"},
      {"measurement": "maximum of cell death in PLBCs", "setting": "[4]; 38.7 μM (10 μg/ml), six to eight hours", "result": "about 6 -fold above control"},
      {"measurement": "EC50", "setting": "[4]; Gallus gallus, 6 h, treated for six hours, read-out: EC50 for induction of PCD in PLBCs", "result": 5, "unit": "µM"},
      {"measurement": "induction of PCD in CEFs compared to controls", "setting": "[5]", "result": "six-fold"},
      {"measurement": "HEFs positive for nuclear β-catenin", "setting": "[6]", "result": 10, "unit": "%"}
    ]}
  ]
}
